Measurements from BindingDB's records for doi:10.1021/jm300601d (Boehringer Ingelheim Pharmaceuticals, 2012).

Experiment: Inhibition of NHE1 in human platelet rich plasma assessed as reduction of propionate medium induced platelet swelling measured every 6 secs for 5 mins

Structure (SMILES) | EC50 [nM]
CS(=O)(=O)c1cccc(C(=O)N2CCC(c3ccc(C(=O)NC(=N)N)cc3C(F)(F)F)CC2)c1 | 50
N=C(N)NC(=O)c1ccc(C2CCN(C(=O)c3ccc(C(N)=O)cc3)CC2)c(C(F)(F)F)c1 | 36
CCC(=O)N1CCC(c2ccc(C(=O)NC(=N)N)cc2C(F)(F)F)CC1 | 31
N#Cc1ccc(C(=O)N2CCC(c3ccc(C(=O)NC(=N)N)cc3C(F)(F)F)CC2)cc1 | 152
N=C(N)NC(=O)c1ccc(C2CCN(C(=O)c3cccnc3)CC2)c(C(F)(F)F)c1 | 32
N=C(N)NC(=O)c1ccc(C2CCN(C(=O)c3ccccn3)CC2)c(C(F)(F)F)c1 | 79
CCC(=O)N1CCC(c2cc(C)c(C(=O)NC(=N)N)cc2S(C)(=O)=O)CC1 | 88
N=C(N)NC(=O)c1ccc(C2CCN(C(=O)C3CC3)CC2)c(C(F)(F)F)c1 | 50
N=C(N)NC(=O)c1ccc(C2CCN(C(=O)c3ccncc3)CC2)c(C(F)(F)F)c1 | 70
CNC(=O)c1ccc(C(=O)N2CCC(c3ccc(C(=O)NC(=N)N)cc3C(F)(F)F)CC2)cc1 | 214
N=C(N)NC(=O)c1ccc(N2CCC(NC(=O)c3ccc[nH]3)C2)c(C(F)(F)F)c1 (centres undefined) | 1590
CCC(=O)N1CCC(c2ccc(C(=O)NC(=N)N)cc2S(C)(=O)=O)CC1 | 266
CN(C)C(=O)c1ccc(C(=O)N2CCC(c3ccc(C(=O)NC(=N)N)cc3C(F)(F)F)CC2)cc1 | 77
CS(=O)(=O)c1ccccc1C(=O)N1CCC(c2ccc(C(=O)NC(=N)N)cc2C(F)(F)F)CC1 | 269
CC(=O)N1CCC(c2cc(C)c(C(=O)NC(=N)N)cc2S(C)(=O)=O)CC1 | 56
N#Cc1cccc(C(=O)N2CCC(c3ccc(C(=O)NC(=N)N)cc3C(F)(F)F)CC2)c1 | 111
N=C(N)NC(=O)c1ccc(N2CCN(C(=O)c3ccc[nH]3)CC2)c(C(F)(F)F)c1 [SABIPORIDE] | 172
N=C(N)NC(=O)c1ccc(C2CCN(C(=O)c3ccc(Cl)cc3)CC2)c(C(F)(F)F)c1 | 1130
N=C(N)NC(=O)c1ccc(N2CCC(NC(=O)c3ccc[nH]3)CC2)c(C(F)(F)F)c1 | 950
N=C(N)NC(=O)c1ccc(C2CCN(C(=O)c3cccc(-c4cnco4)c3)CC2)c(C(F)(F)F)c1 | 353
Cn1ccnc1C(=O)N1CCC(c2ccc(C(=O)NC(=N)N)cc2C(F)(F)F)CC1 | 111
N=C(N)NC(=O)c1ccc(C2CCN(C(=O)c3ccccc3)CC2)c(C(F)(F)F)c1 | 109
CC(=O)N1CCC(c2ccc(C(=O)NC(=N)N)cc2S(C)(=O)=O)CC1 | 189
CS(=O)(=O)c1ccc(C(=O)N2CCC(c3ccc(C(=O)NC(=N)N)cc3C(F)(F)F)CC2)cc1 | 93
N=C(N)NC(=O)c1ccc(C2CCN(C(=O)c3ccccc3Cl)CC2)c(C(F)(F)F)c1 | 495

Structure (SMILES) | EC50 [nM]
CN(C)S(=O)(=O)c1ccc(C(=O)N2CCC(c3ccc(C(=O)NC(=N)N)cc3C(F)(F)F)CC2)cc1 | 241
CC(C)(C)C(=O)N1CCC(c2ccc(C(=O)NC(=N)N)cc2C(F)(F)F)CC1 | 127
N=C(N)NC(=O)c1ccc(C2CCN(C(=O)c3ccc(C(F)(F)F)cc3)CC2)c(C(F)(F)F)c1 | 539
COc1ccc(C(=O)N2CCC(c3ccc(C(=O)NC(=N)N)cc3C(F)(F)F)CC2)cc1 | 498
CNS(=O)(=O)c1ccc(C(=O)N2CCC(c3ccc(C(=O)NC(=N)N)cc3C(F)(F)F)CC2)cc1 | 88
N=C(N)NC(=O)c1ccc(N2CCCC(NC(=O)c3ccc[nH]3)C2)c(C(F)(F)F)c1 (centres undefined) | 3480
CC(=O)N1CCC(c2cc(C)c(C(=O)NC(=N)N)cc2C(F)(F)F)CC1 | 28
N=C(N)NC(=O)c1ccc(C2CCN(C(=O)c3ccc(-c4cnco4)cc3)CC2)c(C(F)(F)F)c1 | 368
N=C(N)NC(=O)c1ccc(C2CCN(C(=O)c3ccc(S(N)(=O)=O)cc3)CC2)c(C(F)(F)F)c1 | 23
CC(C)C(=O)N1CCC(c2ccc(C(=O)NC(=N)N)cc2C(F)(F)F)CC1 | 79
N#Cc1ccccc1C(=O)N1CCC(c2ccc(C(=O)NC(=N)N)cc2C(F)(F)F)CC1 | 200
N=C(N)NC(=O)c1ccc(C2CCN(C(=O)c3ccc(O)cc3)CC2)c(C(F)(F)F)c1 | 138
N=C(N)NC(=O)c1ccc(C2CCN(C(=O)c3ccc(F)cc3)CC2)c(C(F)(F)F)c1 | 184
N=C(N)NC(=O)c1ccc(C2CCN(C(=O)c3ccc(=O)[nH]c3)CC2)c(C(F)(F)F)c1 | 25
COc1cc(C2CCN(C(C)=O)CC2)c(C(F)(F)F)cc1C(=O)NC(=N)N | 432
N=C(N)NC(=O)c1ccc(C2CCN(C(=O)c3ccc[nH]3)CC2)c(C(F)(F)F)c1 | 241
N=C(N)NC(=O)c1ccc(C2CCN(C(=O)c3ccc(-n4ccnc4)cc3)CC2)c(C(F)(F)F)c1 | 169
Cc1cc(C(=O)N2CCC(c3ccc(C(=O)NC(=N)N)cc3C(F)(F)F)CC2)nn1C | 115
N=C(N)NC(=O)c1ccc(C2CCN(C(=O)c3cccc(Cl)c3)CC2)c(C(F)(F)F)c1 | 989
CC(C)CC(=O)N1CCC(c2ccc(C(=O)NC(=N)N)cc2C(F)(F)F)CC1 | 221
COCC(=O)N1CCC(c2ccc(C(=O)NC(=N)N)cc2C(F)(F)F)CC1 | 48
Cn1cncc1C(=O)N1CCC(c2ccc(C(=O)NC(=N)N)cc2C(F)(F)F)CC1 | 62
N=C(N)NC(=O)c1ccc(C2CCN(C(=O)C3CCCC3)CC2)c(C(F)(F)F)c1 | 416
CCCC(=O)N1CCC(c2ccc(C(=O)NC(=N)N)cc2C(F)(F)F)CC1 | 201
